We go through 21 compounds from patent US20260327204A1, “DEGRADERS OF CYCLIN-DEPENDENT KINASE 12/13, COMPOSITIONS, AND USES THEREOF” (ZHEJIANG UNIVERSITY, priority 2023, published 2026).

Holding throughout (format): cell-based
Parameters in all cases: degradation of CDK12/13 protein in leukemia cells KASUMI-1, MV4-11, and Jurkat; endogenous in cells

In test [1] the target is T1, CDK12 (Homo sapiens, UniProt Q9NYV4). Briefly: Western blot degradation of CDK12 (Example 3). Particulars: DC50 classes; cell line not given; read-out: CDK12 degradation Activity. Background: Immunoblotting shows a protein as a band on a membrane.
T1 sequence (Q9NYV4 whole entry): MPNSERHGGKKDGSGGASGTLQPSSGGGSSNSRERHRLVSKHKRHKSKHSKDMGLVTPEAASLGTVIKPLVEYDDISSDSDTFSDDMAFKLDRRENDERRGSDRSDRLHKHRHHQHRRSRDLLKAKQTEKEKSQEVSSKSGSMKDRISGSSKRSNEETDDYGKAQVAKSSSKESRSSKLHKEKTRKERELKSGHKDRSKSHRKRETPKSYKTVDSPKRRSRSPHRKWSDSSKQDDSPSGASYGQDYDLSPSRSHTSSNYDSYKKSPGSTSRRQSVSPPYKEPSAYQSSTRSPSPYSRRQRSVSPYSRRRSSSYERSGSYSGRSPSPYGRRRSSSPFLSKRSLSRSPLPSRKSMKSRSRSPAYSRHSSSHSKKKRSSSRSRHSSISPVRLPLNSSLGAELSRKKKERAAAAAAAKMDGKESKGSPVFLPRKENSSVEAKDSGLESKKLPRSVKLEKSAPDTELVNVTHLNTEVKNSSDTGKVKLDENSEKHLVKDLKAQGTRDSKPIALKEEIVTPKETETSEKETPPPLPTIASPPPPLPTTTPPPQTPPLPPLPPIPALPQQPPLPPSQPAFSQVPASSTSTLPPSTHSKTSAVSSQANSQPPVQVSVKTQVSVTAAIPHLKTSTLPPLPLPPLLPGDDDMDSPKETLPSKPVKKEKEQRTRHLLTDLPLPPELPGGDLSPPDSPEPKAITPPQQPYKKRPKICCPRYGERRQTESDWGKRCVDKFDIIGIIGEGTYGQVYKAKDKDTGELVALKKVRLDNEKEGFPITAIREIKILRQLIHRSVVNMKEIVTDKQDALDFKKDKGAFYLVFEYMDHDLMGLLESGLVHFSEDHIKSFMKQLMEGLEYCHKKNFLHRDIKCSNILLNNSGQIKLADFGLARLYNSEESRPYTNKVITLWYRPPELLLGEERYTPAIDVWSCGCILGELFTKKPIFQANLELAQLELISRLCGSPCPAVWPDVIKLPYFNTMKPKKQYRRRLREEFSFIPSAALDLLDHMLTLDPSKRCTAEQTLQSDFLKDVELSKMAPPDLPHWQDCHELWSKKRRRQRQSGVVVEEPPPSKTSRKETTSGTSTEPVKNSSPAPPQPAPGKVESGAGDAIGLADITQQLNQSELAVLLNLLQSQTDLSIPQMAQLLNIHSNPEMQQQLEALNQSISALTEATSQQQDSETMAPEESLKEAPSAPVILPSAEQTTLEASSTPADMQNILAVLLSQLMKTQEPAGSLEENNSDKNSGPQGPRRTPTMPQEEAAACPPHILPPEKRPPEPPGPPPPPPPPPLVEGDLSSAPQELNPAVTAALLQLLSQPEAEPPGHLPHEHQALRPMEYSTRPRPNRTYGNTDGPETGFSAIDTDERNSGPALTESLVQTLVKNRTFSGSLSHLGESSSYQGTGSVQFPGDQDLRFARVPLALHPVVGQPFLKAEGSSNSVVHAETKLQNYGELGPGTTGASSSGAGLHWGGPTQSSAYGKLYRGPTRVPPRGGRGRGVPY
T1 sequence (O75909 whole entry partner): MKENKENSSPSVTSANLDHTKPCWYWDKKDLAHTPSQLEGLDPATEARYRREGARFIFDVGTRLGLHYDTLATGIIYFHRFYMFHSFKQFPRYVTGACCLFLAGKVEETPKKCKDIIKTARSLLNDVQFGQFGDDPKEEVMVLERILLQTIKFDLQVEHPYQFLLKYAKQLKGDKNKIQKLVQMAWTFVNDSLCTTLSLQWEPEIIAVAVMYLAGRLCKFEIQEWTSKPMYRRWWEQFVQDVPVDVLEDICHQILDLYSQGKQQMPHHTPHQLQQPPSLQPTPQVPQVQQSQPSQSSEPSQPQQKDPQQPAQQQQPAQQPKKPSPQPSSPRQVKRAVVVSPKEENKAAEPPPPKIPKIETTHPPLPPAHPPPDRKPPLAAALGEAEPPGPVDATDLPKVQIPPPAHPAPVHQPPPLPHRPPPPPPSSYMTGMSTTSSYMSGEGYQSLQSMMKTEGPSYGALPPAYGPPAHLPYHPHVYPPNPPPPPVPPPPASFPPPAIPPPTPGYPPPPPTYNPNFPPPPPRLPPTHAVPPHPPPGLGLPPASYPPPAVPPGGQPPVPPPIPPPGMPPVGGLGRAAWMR
Test [2] addresses T2, CDK13 (Homo sapiens, UniProt Q14004). Briefly: Western blot degradation of CDK13 (Example 3). As to conditions: DC50 classes; cell line not given; read-out: CDK13 degradation Activity.
The target of test [3] is T2, CDK13. The test is described as follows: Western blot degradation of CDK13 (Example 2). As to conditions: DC50 classes, cell line not given; for DC50: read-out: CDK13 degradation Activity.
For test [4], the target named is T1, CDK12. The test is described as follows: Western blot degradation of CDK12 (Example 2). Particulars: DC50 classes, cell line not given; for DC50: read-out: CDK12 degradation Activity. The procedure, abridged: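 Leukemia lines KASUMI-1, MV4-11, Jurkat, plus MDA-MB-231 for a concentration series, treated at 0.01–3 μM for 3–48 h at 37 °C against DMSO control. Lysates in 4% SDS; CDK12/13 band intensity normalized to β-Actin or GAPDH to give degradation rate.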

T2 sequence (Q14004 whole entry): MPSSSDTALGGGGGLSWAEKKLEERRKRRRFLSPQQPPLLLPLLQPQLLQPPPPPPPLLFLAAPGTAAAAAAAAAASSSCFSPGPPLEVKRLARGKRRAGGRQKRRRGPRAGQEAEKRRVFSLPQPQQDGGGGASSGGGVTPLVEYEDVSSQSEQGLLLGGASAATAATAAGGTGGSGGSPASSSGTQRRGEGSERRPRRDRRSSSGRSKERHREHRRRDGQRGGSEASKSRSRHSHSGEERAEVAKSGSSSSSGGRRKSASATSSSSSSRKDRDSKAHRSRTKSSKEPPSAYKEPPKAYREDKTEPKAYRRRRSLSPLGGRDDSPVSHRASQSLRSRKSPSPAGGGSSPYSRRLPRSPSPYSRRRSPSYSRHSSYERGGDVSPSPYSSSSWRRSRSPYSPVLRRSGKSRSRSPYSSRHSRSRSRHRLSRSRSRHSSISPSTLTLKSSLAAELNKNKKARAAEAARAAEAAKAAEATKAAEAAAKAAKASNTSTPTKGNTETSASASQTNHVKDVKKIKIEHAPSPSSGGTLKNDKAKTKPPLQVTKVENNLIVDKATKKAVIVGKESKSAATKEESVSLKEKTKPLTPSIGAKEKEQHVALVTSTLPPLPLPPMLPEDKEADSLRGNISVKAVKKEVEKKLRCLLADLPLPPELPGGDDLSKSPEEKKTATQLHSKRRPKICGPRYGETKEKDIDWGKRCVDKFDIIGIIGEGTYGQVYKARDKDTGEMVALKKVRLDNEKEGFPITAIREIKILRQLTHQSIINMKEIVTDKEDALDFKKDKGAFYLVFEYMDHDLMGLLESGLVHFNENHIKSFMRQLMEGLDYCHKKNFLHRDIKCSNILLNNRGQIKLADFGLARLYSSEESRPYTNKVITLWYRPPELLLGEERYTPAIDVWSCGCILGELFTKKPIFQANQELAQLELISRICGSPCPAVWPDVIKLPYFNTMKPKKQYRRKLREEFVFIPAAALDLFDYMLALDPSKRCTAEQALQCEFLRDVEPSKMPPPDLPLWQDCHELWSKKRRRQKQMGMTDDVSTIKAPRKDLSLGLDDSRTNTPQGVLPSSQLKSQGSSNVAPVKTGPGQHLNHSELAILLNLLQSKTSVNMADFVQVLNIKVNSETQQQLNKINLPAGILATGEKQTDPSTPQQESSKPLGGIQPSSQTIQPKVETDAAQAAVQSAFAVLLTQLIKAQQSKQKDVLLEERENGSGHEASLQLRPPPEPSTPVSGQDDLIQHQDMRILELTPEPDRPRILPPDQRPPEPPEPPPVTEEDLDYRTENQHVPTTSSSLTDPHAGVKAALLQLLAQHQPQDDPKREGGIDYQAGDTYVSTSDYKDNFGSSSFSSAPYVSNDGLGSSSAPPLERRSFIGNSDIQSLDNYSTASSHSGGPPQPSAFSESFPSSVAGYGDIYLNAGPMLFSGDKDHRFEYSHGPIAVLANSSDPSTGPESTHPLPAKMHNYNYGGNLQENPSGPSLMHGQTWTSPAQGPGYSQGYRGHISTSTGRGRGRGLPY
T2 sequence (O75909 whole entry partner): as the sequence (O75909 whole entry partner) above

Consider `CC(=O)N(c1ccc(-c2ccc(N3CCN(c4cnn([C@H](C(=O)N5C[C@H](O)C[C@H]5C(=O)N[C@@H](C)c5ccc(-c6scnc6C)cc5)C(C)C)c4)CC3)nc2)cc1)[C@H]1CC[C@H](Nc2ncc3ccccc3n2)CC1` [Formula 152, (2S,4R)-4-hydroxy-1-((S)-3-methyl-2-(4-(4-(5-(4-(N-((1R,4R)-4-(quinazolin-2-ylamino)cyclohexyl)acetamido)phenyl)pyridin-2-yl)piperazin-1-yl)-1H-pyrazol-1-yl)butanoyl)-N—((S)-1-(4-(4-methylthiazol-5-yl)phenyl)ethyl)pyrrolidine-2-carboxamide], for which the DC50 at CDK12 [1] and at CDK13 [2] was 100 to 500 nM each time.
`CC(=O)N(c1ccc(N2CCN(C3CCN(c4ccc5c(c4)C(=O)N(C4CCC(=O)NC4=O)C5=O)CC3)CC2)cc1)[C@H]1CC[C@H](Nc2ncc3ccccc3n2)CC1` (stereo partly drawn) [Formula 123, N-(4-(4-(1-(2-(2,6-dioxopiperidin-3-yl)-1,3-dioxoisoindolin-5-yl)piperidin-4-yl)piperazin-1-yl)phenyl)-N-((1R,4R)-4-(quinazolin-2-ylamino)cyclohexyl)acetamide]: the values for the DC50 at CDK12 [1] and on CDK13 [2] were 100 to 500 nM and 500 to 1000 nM, respectively.
The matching figures for `CC(=O)N(c1ccc(-c2ccc(N3C[C@@H]4C[C@H]3CN4CC(=O)N[C@H](C(=O)N3C[C@H](O)C[C@H]3C(=O)N[C@@H](C)c3ccc(-c4scnc4C)cc3)C(C)(C)C)nc2)cc1)[C@H]1CC[C@H](Nc2ncc3ccccc3n2)CC1` [Formula 141, (2S,4R)-1-((S)-3,3-dimethyl-2-(2-((1S,4S)-5-(5-(4-(N-((1R,4S)-4-(quinazolin-2-ylamino)cyclohexyl)acetamido)phenyl)pyridin-2-yl)-2,5-diazabicyclo[2.2.1]heptan-2-yl)acetamido)butanoyl)-4-hydroxy-N—((S)-1-(4-(4-methylthiazol-5-yl)phenyl)ethyl)pyrrolidine-2-carboxamide]: < 100 nM and 100 to 500 nM.
Take `CC(=O)N(c1ccc(N2CCN(CC3CCN(c4ccc5c(c4)C(=O)N(C4CCC(=O)NC4=O)C5=O)CC3)CC2)cc1)[C@H]1CC[C@H](Nc2ncc3ccccc3n2)CC1` (some centres unmarked) [Formula 106]: the DC50 on CDK12 [1] and at CDK13 [2] was 500 to 1000 nM in each case.
In the case of `CC(=O)N(c1ccc(-c2cnc(OCC3CCN(CC(=O)N[C@H](C(=O)N4C[C@H](O)C[C@H]4C(=O)N[C@@H](C)c4ccc(-c5scnc5C)cc4)C(C)(C)C)CC3)nc2)cc1)[C@H]1CC[C@H](Nc2ncc3ccccc3n2)CC1` [Formula 134, (2S,4R)-1-((S)-3,3-dimethyl-2-(2-(4-(((5-(4-(N-((1R,4R)-4-(quinazolin-2-ylamino)cyclohexyl)acetamido)phenyl)pyrimidin-2-yl)oxy)methyl)piperidin-1-yl)acetamido)butanoyl)-4-hydroxy-N—((S)-1-(4-(4-methylthiazol-5-yl)phenyl)ethyl)pyrrolidine-2-carboxamide], the DC50 on CDK12 [1] and on CDK13 [2] was 500 to 1000 nM in each case.
Take `CC(=O)N(c1ccc(-c2cnc(OCCOCC(=O)N[C@H](C(=O)N3C[C@H](O)C[C@H]3C(=O)N[C@@H](C)c3ccc(-c4scnc4C)cc3)C(C)(C)C)nc2)cc1)[C@H]1CC[C@H](Nc2ncc3ccccc3n2)CC1` [Formula 132, (2S,4R)-1-((S)-3,3-dimethyl-2-(2-(2-((5-(4-(N-((1R,4R)-4-(quinazolin-2-ylamino)cyclohexyl)acetamido)phenyl)pyrimidin-2-yl)oxy)ethoxy)acetamido)butanoyl)-4-hydroxy-N—((S)-1-(4-(4-methylthiazol-5-yl)phenyl)ethyl)pyrrolidine-2-carboxamide]: the DC50 at CDK12 [1] and at CDK13 [2] was 500 to 1000 nM throughout.
On to `CC(=O)N(c1ccc(-c2ccc(CN3CCN(c4ccc5c(c4)C(=O)N(C4CCC(=O)NC4=O)C5=O)CC3)nc2)cc1)[C@H]1CC[C@H](Nc2ncc3ccccc3n2)CC1` (stereo partly drawn) [Formula 102, N-(4-(6-((4-(2-(2,6-dioxopiperidin-3-yl)-1,3-dioxoisoindolin-5-yl)piperazin-1-yl)methyl)pyridin-3-yl)phenyl)-N-((1R,4R)-4-(quinazolin-2-ylamino)cyclohexyl)acetamide], for which the DC50 at CDK12 [1] is 500 to 1000 nM; on CDK13 [2], 100 to 500 nM.
On to `CC(=O)N(c1ccc(N2CCC3(CC2)CCN(c2ccc4c(c2)C(=O)N(C2CCC(=O)NC2=O)C4=O)C3)cc1)[C@H]1CC[C@H](Nc2ncc3ccccc3n2)CC1` (stereo partly drawn) [Formula 119, N-(4-(2-(2-(2,6-dioxopiperidin-3-yl)-1,3-dioxoisoindolin-5-yl)-2,8-diazaspiro[4.5]decan-8-yl)phenyl)-N-((1R,4R)-4-(quinazolin-2-ylamino)cyclohexyl)acetamide], for which, on CDK12 [1], the DC50 was 1000 to 3000 nM.
Regarding `Cc1ncsc1-c1ccc([C@H](C)NC(=O)[C@@H]2C[C@@H](O)CN2C(=O)[C@@H](NC(=O)CN2CCC(n3cc(-c4ccc(N(C(=O)NCc5ccccc5)[C@H]5CC[C@H](Nc6ccc(C#N)cn6)CC5)cc4)cn3)CC2)C(C)(C)C)cc1` [Formula 31], the DC50 at CDK13 [3] was 3 to 10 µM; on CDK12 [4], 1 to 3 µM.
The matching figures for `Cc1ncsc1-c1ccc([C@H](C)NC(=O)[C@@H]2C[C@@H](O)CN2C(=O)[C@@H](NC(=O)CN2CCN(c3ncc(-c4ccc(N(C(=O)NCc5ccccc5)[C@H]5CC[C@H](Nc6ccc(C#N)cn6)CC5)cc4)cn3)CC2)C(C)(C)C)cc1` (racemic) [Formula 81]: < 0.1 µM and < 0.1 µM.
Consider `Cc1ncsc1-c1ccc([C@H](C)NC(=O)[C@@H]2C[C@@H](O)CN2C(=O)[C@@H](NC(=O)COCCOCCOc2ccc(-c3ccc(N(C(=O)NCc4ccccc4)[C@H]4CC[C@H](Nc5ccc(C#N)cn5)CC4)cc3)cn2)C(C)(C)C)cc1` [Formula 2], for which the figures for the DC50 on CDK13 [3] and on CDK12 [4] were 0.5 to 1 µM and 1 to 3 µM, respectively.
With `N#Cc1ccc(N[C@H]2CC[C@H](N(C(=O)NCc3ccccc3)c3ccc(N4CCN(CCOCCOCCNc5cccc6c5C(=O)N(C5CCC(=O)NC5=O)C6=O)CC4)cc3)CC2)nc1` (some centres unmarked) [Formula 39], the DC50 at CDK13 [3] was in the range of 3 to 10 µM; on CDK12 [4], 1 to 3 µM.
The matching figures for `N#Cc1ccc(N[C@H]2CC[C@H](N(C(=O)NCc3ccccc3)c3ccc(N4CCN(CCOCCNc5cccc6c5C(=O)N(C5CCC(=O)NC5=O)C6=O)CC4)cc3)CC2)nc1` (some centres unmarked) [Formula 38]: 1 to 3 µM and 0.5 to 1 µM.
For the compound `Cc1ncsc1-c1ccc([C@H](C)NC(=O)[C@@H]2C[C@@H](O)CN2C(=O)[C@@H](NC(=O)CN2CCC(C#Cc3ccc(N(C(=O)NCc4ccccc4)[C@H]4CC[C@H](Nc5ccc(C#N)cn5)CC4)cc3)CC2)C(C)(C)C)cc1` [Formula 25], the DC50 at CDK13 [3] and at CDK12 [4] was 3 to 10 µM each time.
For `CCNC(=O)N(c1ccc(-c2ccc(OCCOCCOCCOCCNc3cccc4c3C(=O)N(C3CCC(=O)NC3=O)C4=O)nc2)cc1)[C@H]1CC[C@H](Nc2ccc(C#N)cn2)CC1` (some centres unmarked) [Formula 43], the DC50 on CDK13 [3] and on CDK12 [4] was 1 to 3 µM each time.
In the case of `Cc1ncsc1-c1ccc([C@H](C)NC(=O)[C@@H]2C[C@@H](O)CN2C(=O)[C@@H](NC(=O)CC#CC2CN(c3ccc(N(C(=O)NCc4ccccc4)[C@H]4CC[C@H](Nc5ccc(C#N)cn5)CC4)cc3)C2)C(C)(C)C)cc1` [Formula 24], the “CDK13 degradation Activity” value at CDK13 [3] is “−”. For the same compound, at CDK12 [4], the “CDK12 degradation Activity” value is recorded as “−”.
Consider `Cc1ncsc1-c1ccc([C@H](C)NC(=O)[C@@H]2C[C@@H](O)CN2C(=O)[C@@H](NC(=O)CC#Cc2ccc(-c3ccc(N(C(=O)NCc4ccccc4)[C@H]4CC[C@H](Nc5ccc(C#N)cn5)CC4)cc3)cn2)C(C)(C)C)cc1` [Formula 15], for which the “CDK13 degradation Activity” value at CDK13 [3] is “−”. For the same compound, on CDK12 [4], the “CDK12 degradation Activity” value is recorded as “−”.
As to `Cc1ncsc1-c1ccc([C@H](C)NC(=O)[C@@H]2C[C@@H](O)CN2C(=O)[C@@H](NC(=O)COCCOCCn2cc(-c3ccc(N(C(=O)NCc4ccccc4)[C@H]4CC[C@H](Nc5ccc(C#N)cn5)CC4)cc3)ccc2=O)C(C)(C)C)cc1` [Formula 57], the “CDK13 degradation Activity” value on CDK13 [3] is “−”. The “CDK12 degradation Activity” value on CDK12 [4] is reported as “−”.
With `N#Cc1ccc(N[C@H]2CC[C@H](N(C(=O)NCc3ccccc3)c3ccc(-c4ccc(=O)n(CCOCCOCCOCCOCCOCCNc5cccc6c5C(=O)N(C5CCC(=O)NC5=O)C6=O)c4)cc3)CC2)nc1` (some centres unmarked) [Formula 50], the DC50 at CDK13 [3] and at CDK12 [4] was 3 to 10 µM in each case.
For `N#Cc1ccc(N[C@H]2CC[C@H](N(C(=O)NCc3ccccc3)c3ccc(N4CCN(CCNc5cccc6c5C(=O)N(C5CCC(=O)NC5=O)C6=O)CC4)cc3)CC2)nc1` (some centres unmarked) [Formula 42], the DC50 on CDK13 [3] and on CDK12 [4] was 1 to 3 µM in each case.
As to `Cc1ncsc1-c1ccc([C@H](C)NC(=O)[C@@H]2C[C@@H](O)CN2C(=O)[C@@H](NC(=O)CN2CC(Oc3ccc(-c4ccc(N(C(=O)NCc5ccccc5)[C@H]5CC[C@H](Nc6ccc(C#N)cn6)CC5)cc4)cn3)C2)C(C)(C)C)cc1` [Formula 14], the “CDK13 degradation Activity” value at CDK13 [3] is given as “−”. For the same compound, on CDK12 [4], the DC50 was in the range of 3 to 10 µM.
